The source of these data is publication PMC11837497, “A novel FadL family outer membrane transporter is involved in the uptake of polycyclic aromatic hydrocarbons” (Applied and Environmental Microbiology, 2025).

The target in the assay is T1, PadL (NpPadL) (Novosphingobium pentaromativorans, UniProt G6EAN6).
T1 construct: gene NSU_1434; padL expressed from pET-28b (T7, IPTG) in E. coli BL21 cells; also pHGE-Ptac complementation of delta-padL US6-1; signal peptide (residues 1-45) removed only in the model
T1 sequence (G6EAN6 46-450): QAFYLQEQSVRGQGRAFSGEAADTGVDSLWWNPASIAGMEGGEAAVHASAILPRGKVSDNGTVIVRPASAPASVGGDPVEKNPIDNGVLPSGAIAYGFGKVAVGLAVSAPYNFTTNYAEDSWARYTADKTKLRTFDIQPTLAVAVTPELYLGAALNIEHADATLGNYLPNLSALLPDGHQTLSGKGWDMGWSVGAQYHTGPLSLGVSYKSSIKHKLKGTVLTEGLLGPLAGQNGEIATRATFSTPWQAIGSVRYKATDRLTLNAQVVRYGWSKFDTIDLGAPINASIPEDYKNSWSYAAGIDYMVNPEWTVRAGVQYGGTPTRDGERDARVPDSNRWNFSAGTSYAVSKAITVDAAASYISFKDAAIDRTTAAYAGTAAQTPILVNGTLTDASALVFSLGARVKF
The assay can be described thus: uptake by intact cells, confocal fluorescence of intracellular phenanthrene. Conditions: E. coli BL21/pET28b-padL, LB medium, 200 mg/L phenanthrene, IPTG induction, 37 °C. It is filed as cell-based.

As to `c1ccc2c(c1)ccc1ccccc12` [phenanthrene], the “uptake by intact cells, confocal fluorescence of intracellular phenanthrene” value was “E. coli BL21 can be endowed with an ability to assimilate phenanthrene after heterologous expression of PadL”.
